Assay results reported in the OPERA property sets (Mansouri et al. 2018).
≈ marks a conversion by molar mass, not a printed value. Where a SMILES comes first, the peptide text is derived from it.

Row | Structure (SMILES) | logP | solubility
1 | CCCC(=O)n1ncc2c(O)ncnc21 | 0.85 | 
2 | O=C(O)C1CCN1CC(O)Cn1ccnc1 (configuration not stated) | -2.02 | 
3 | CCCCCCOC(=O)c1ccc(N)cc1 | 3.96 | 
4 | CCCCCNC(=O)CCC(NS(=O)(=O)c1ccccc1)C(=O)O (configuration not stated) | 0.03 | 
5 | CN(C)CCCN1c2cc(O)ccc2Sc2ccc(Cl)cc21 | 4.63 | 
6 | CC(=O)N[C@@H](C)C(=O)N[C@H](C(N)=O)C(C)C (Ac-Ala-Val-NH2) | -1.13 | 
7 | CC1(C)[C@H](/C=C(\Cl)C(F)(F)F)[C@@H]1C(=O)O[C@H](C#N)c1cccc(Oc2ccccc2)c1 |  | 1.11e-05 mM (≈ 0.005 µg/mL)
8 | NS(=O)(=O)c1nc2ccc(OCCO)cc2s1 | 0.59 | 
9 | CCOC1OC2OC3(C)CCC4C(C)C(O)CC(C1C)C24OO3 (configuration not stated) | 2.14 | 
10 | CCCc1oc(C)cc(=O)c1O | 1.4 | 
11 | CC(C)=NNc1ccc([N+](=O)[O-])cc1[N+](=O)[O-] | 3.05 | 
12 | COc1ccc(N=c2snc3sc(S(N)(=O)=O)nn23)cc1 | 2.93 | 
13 | O=[N+]([O-])c1c2ccccc2cc2ccccc12 | 4.78 | 
14 | COc1c(Cl)cc(Cl)c(Cl)c1Cl | 4.75 | 
15 | CCCCOC(=O)C(N)Cc1ccc(O)cc1 (configuration not stated) | 1.8 | 
16 | Cc1ncc([N+](=O)[O-])n1C | 0.31 | 
17 | CC(C)Nc1nc(N)nc(Cl)n1 | 1.51 | 1.97 mM (≈ 369 µg/mL)
18 | COCC(C)OC(=O)C(N)Cc1ccc(O)c(O)c1 (configuration not stated) | 0.08 | 
19 | Cc1cc(Cc2ccc(Cl)cc2Cl)c(Cl)cc1Cl | 7.43 | 

Row | Structure (SMILES) | logP | solubility
20 | C[Si]1(C)O[Si](C)(C)O[Si](C)(C)O[Si](C)(C)O[Si](C)(C)O1 | 8.03 | 
21 | ClC=C1C2C(Cl)C(Cl)C(C2Cl)C1(CCl)CCl (configuration not stated) | 5.35 | 
22 | COc1ccc(Cl)c(Cl)c1Cl | 3.74 | 
23 | CC[N+](CC)(CC)CC.[Cl-] | -3.15 | 
24 | O=c1nc[nH]c2c1ncn2[C@@H]1O[C@H](CO)C[C@@H]1F | -1.21 | 
25 | CCCC(=NOCC)C1=C(O)CC(CC(C)SCC)CC1=O (configuration not stated) | 4.38 | 
26 | CCCCCCCCCC | 5.01 | 
27 | CC(=O)c1ccc(NCc2cnc3nc(N)nc(N)c3c2C)cc1 | 1.45 | 
28 | [N-]=[N+]=CC(=O)OC[C@H](N)C(=O)O | -2 | 
29 | Cc1c(Cl)ccc(Cc2ccc(Cl)cc2Cl)c1Cl | 7.2 | 
30 | COc1nc(C)nc(NC(=O)NS(=O)(=O)c2ccccc2Cl)n1 | 2 | 
31 | CN1CC=C(c2ccc(Cl)cc2)CC1 | 3.32 | 
32 | Clc1ccc(Nc2cc3nc4ccccc4n(-c4ccc(Cl)cc4)c-3cc2=NCCCN2CCCCC2)cc1 | 8.18 | 
33 | Cc1cccc(C)c1C |  | 0.626 mM (≈ 75.2 µg/mL)
34 | O=c1[nH][nH]c(=O)c2ccccc12 | 0.11 | 
35 | CCCCCCc1ccc(N)cc1 | 4.21 | 
36 | CCN(CC)CCN=c1cc2n(-c3ccc(Cl)cc3)c3ccccc3nc-2cc1Nc1ccc(Cl)cc1 | 7.97 | 
37 | Oc1ccc(O)cc1 |  | 654 mM (≈ 72000 µg/mL)
38 | CC(C)(O)C(=O)Nc1ccc([N+](=O)[O-])c(C(F)(F)F)c1 | 2.7 | 

Row | Structure (SMILES) | logP | solubility
39 | CN(C)c1ccc2cc3ccc(N(C)C)cc3nc2c1 |  | 2.64 mM (≈ 700 µg/mL)
40 | CC(C)NCc1ccccc1 | 1.83 | 
41 | CC1CCCC(C)C1O (configuration not stated) | 2.1 | 
42 | O=P(OCCCl)(OCCCl)OCCCl |  | 24.5 mM (≈ 7000 µg/mL)
43 | COc1cccc(OCCN(C)C)c1 | 1.69 | 
44 | CN(C(=O)C(Cl)Cl)c1ccc(OC(=O)c2ccco2)cc1 | 2.24 | 
45 | CC(CCC(=O)NCC(=O)O)C1CCC2C3CCC4CC(O)CCC4(C)C3CC(O)C12C (configuration not stated) | 2.25 | 
46 | Clc1cc(Cl)c(-c2cc(Cl)c(Cl)cc2Cl)cc1Cl | 6.34 | 
47 | CCc1cc2c(s1)N(C)C(=O)CN=C2c1ccccc1Cl | 3.18 | 
48 | C=CCC1(CC(C)O)C(=O)NC(=O)NC1=O (configuration not stated) | -0.05 | 
49 | Cc1cccc(NC(=O)c2ccccc2C(=O)O)c1 |  | 3.92 mM (≈ 1000 µg/mL)
50 | CC(C)OC(C)(C)C | 2.14 | 
51 | CSc1nc2ccccc2s1 | 3.15 | 
52 | COC(=O)c1cc2ccccc2[nH]1 | 2.45 | 
53 | Nc1nc(=O)n([C@@H]2CS[C@H](CO)O2)cc1F | -0.43 | 
54 | C=CCN(CC=C)CC=C |  | 18.2 mM (≈ 2500 µg/mL)
55 | COc1c2ccoc2cc2oc(=O)ccc12 | 1.93 | 
56 | NS(=O)(=O)c1nc2ccc([N+](=O)[O-])cc2s1 | 1.36 | 
